According to patent publication US10039759B2, “Quinolines as FGFR kinase modulators” (priority 2011, dated 2018):
Like-named read-outs stand apart in the source and are kept apart here.

Columns and labels:
[1] = system: Ba/F3-KDR-transfected cells; experiment: Ba/F3-KDR (minus IL3 or plus IL3) cellular proliferation assay, Alamar Blue; assay type: cell-based; conditions: for IC50: read-out: BAF3-KDR (PLUS IL3 Alamar Blue pIC50) (converted)
Method in brief: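 Ba/F3-KDR cells, 20000 per well, exposed to compounds (10 μM to 0.1 nM) for 24 h at 37°C in RPMI/10% FBS, then Alamar Blue for 4 h; fluorescence ex 540/em 590 nm gives IC50 and pIC50. Counterscreen run with 10 ng/ml murine IL3.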

[2] = system: Ba/F3-FGFR3-transfected cells; experiment: Ba/F3-FGFR3 (minus IL3 or plus IL3) cellular proliferation assay, Alamar Blue; assay type: cell-based; conditions: for IC50: read-out: BAF3-FGFR3 (PLUS IL3 Alamar Blue pIC50) (converted)
Method in brief: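 Ba/F3-FGFR3 cells (20000 per well) in phenol red-free RPMI-1640 with 10% FBS were exposed to compound (10 μM to 0.1 nM) for 24 h at 37° C. Alamar Blue was then added for 4 h and fluorescence read (ex 540, em 590 nm) to give IC50/pIC50; the counterscreen was run with 10 ng/ml murine IL3.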

[3] = system: Ba/F3-Flt3-transfected cells; experiment: Ba/F3-Flt3 (minus IL3 or plus IL3) cellular proliferation assay, Alamar Blue; assay type: cell-based; conditions: plus IL3 (10 ng/ml murine IL3, counterscreen), 24 hours
Protocol: Ba/F3-Flt3 (Minus IL3 or Plus IL3) (Cellular Proliferation Assay)
In a 384 well plate, 100 nl of compound dilution in DMSO was sprayed before adding 50 μl cell culture medium (phenol red free RPMI-1640, 10% FBS, 2 mM L-Glutamine and 50 μg/ml Gentamycin) containing 20000 cells per well of Ba/F3-Flt3-transfected cells. Cells were put in an incubator at 37° C. and 5% CO2. After 24 hours, 10 μl of Alamar Blue solution (0.5 mM K3Fe(CN)6, 0.5 mM K4Fe(CN)6, 0.15 mM Resazurin and 100 mM Phosphate Buffer) was added to the wells, incubated for 4 hours at 37° C. and 5% CO2 before RFU's (Relative Fluorescence Units) (ex. 540 nm., em. 590 nm.) were measured in a fluorescence plate reader.
In this assay, the inhibitory effect of different compound concentrations (range 10 μM to 0.1 nM) was determined and used to calculate an IC50 (M) and pIC50 (−log IC50) value. As a counterscreen the same experiment was performed in the presence of 10 ng/ml murine IL3.

[4] = system: Ba/F3-FGFR1-transfected cells; experiment: Ba/F3-FGFR1 (minus IL3 or plus IL3) cellular proliferation assay, Alamar Blue; assay type: cell-based; conditions: plus IL3 (10 ng/ml murine IL3, counterscreen), 24 hours
Method in brief: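 Ba/F3-FGFR1 cells (20000/well) were treated with compound (10 μM–0.1 nM) for 24 h at 37 °C. Alamar Blue was then added for 4 h, with fluorescence read at ex 540/em 590 nm to give IC50/pIC50. A counterscreen was run with 10 ng/ml murine IL3.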

[5] = plus IL3 (10 ng/ml murine IL3, counterscreen), 24 hours, Alamar Blue

Row | Compound | IC50 [1, 5] [µM] | IC50 [2, 5] [µM] | melting point [°C] | also measured
1 | COc1cc(OC)cc(N(CC(O)C(F)(F)F)c2ccc3ncc(-c4cnn(C)c4)cc3c2)c1 (single isomer, unassigned) [Compound 24] | > 10 | > 10 | – | –
2 | COc1cc(OC)cc(N(CC(O)C(F)(F)F)c2ccc3ncc(-c4cnn(C)c4)cc3c2)c1 (single isomer, unassigned) [Compound 25] | – | – | – | BAF3-KDR (PLUS IL3 Alamar Blue pIC50) [1, 5]: <5; BAF3-FLT3 (PLUS IL3 Alamar Blue pIC50) [3]: <5; BAF3-FGFR1 (PLUS IL3 pIC50) [4]: <5; BAF3-FGFR3 (PLUS IL3 Alamar Blue pIC50) [2, 5]: <5
3 | COc1cc(OC)cc(N(CCO)c2ccc3ncc(-c4cnn(C)c4)cc3c2)c1 [Compound 3] | > 10 | > 10 | 195 to 196 | –
4 | COc1cc(OC)cc(N(CCCO)c2ccc3ncc(-c4cnn(C)c4)cc3c2)c1 [Compound 4] | > 10 | > 10 | – | –
5 | C#CCN(c1cc(OC)cc(OC)c1)c1ccc2ncc(-c3cnn(C)c3)cc2c1 [Compound 6] | > 10 | > 10 | – | –
6 | COc1cc(OC)cc(N(CC2CCN(c3nccc(OC)n3)C2)c2ccc3ncc(-c4cnn(C)c4)cc3c2)c1 (stereo not shown) [Compound 7] | > 10 | > 10 | 132 | –
7 | COc1cc(OC)cc(N(Cc2ncccn2)c2ccc3ncc(-c4cnn(C)c4)cc3c2)c1 [Compound 8] | > 10 | > 10 | 151 | –
8 | COc1cc(OC)cc(N(Cc2nccn2S(=O)(=O)N(C)C)c2ccc3ncc(-c4cnn(C)c4)cc3c2)c1 [Compound 9] | > 10 | > 10 | – | –
9 | COc1cc(OC)cc(N(CCCN)c2ccc3ncc(-c4cnn(C)c4)cc3c2)c1 [Compound 11] | > 10 | > 10 | – | –
10 | COc1cc(OC)cc(C(O)c2ccc3ncc(-c4cnn(C)c4)cc3c2)c1 (stereo not shown) [Compound 12] | – | – | 184 to 193 | IC50 ([1]; 24 h): > 10 µM; IC50 ([2]; 24 h): > 10 µM
11 | COc1cc(OC)cc(N(CCNC(C)C)c2ccc3ncc(-c4cnn(CCS(C)(=O)=O)c4)cc3c2)c1 [Compound 14] | > 10 | > 10 | 129 | –
12 | COc1cc(OC)cc(N(CC#Cc2nccc(OC)n2)c2ccc3ncc(-c4cnn(C)c4)cc3c2)c1 [Compound 16] | – | – | 203 | –
13 | COc1cc(OC)cc(N(CC#Cc2ncccc2OC)c2ccc3ncc(-c4cnn(C)c4)cc3c2)c1 [Compound 17] | > 10 | > 10 | – | –
14 | COc1cc(OC)cc(N(Cc2ncc[nH]2)c2ccc3ncc(-c4cnn(C)c4)cc3c2)c1 [Compound 18] | > 10 | > 10 | 196 | –
15 | COc1cc(OC)cc(N(CCNC(C)C)c2ccc3ncc(-c4cn[nH]c4)cc3c2)c1 [Compound 21] | > 10 | > 10 | – | –
16 | COc1cc(OC)cc(N(CCNC(C)C)c2ccc3ncc(-c4cnn(C5CCCCO5)c4)cc3c2)c1 (stereo not shown) [Compound 22] | > 10 | > 10 | – | –
17 | COc1cc(OC)cc(N(CCCN2CCCC2CNS(=O)(=O)C(F)(F)F)c2ccc3ncc(-c4cnn(C)c4)cc3c2)c1 (stereo not shown) [Compound 47] | > 10 | > 10 | – | –
18 | COc1cc(OC)cc(N(CC#Cc2nccn2C)c2ccc3ncc(-c4cnn(C)c4)cc3c2)c1 [Compound 48] | > 10 | > 10 | – | –
19 | COc1cc(OC)cc(N(Cc2nccn2S(=O)(=O)N(C)C)c2ccc3ncc(-c4ccncc4)cc3c2)c1 [Compound 58] | > 10 | > 10 | – | –
20 | COc1cc(OC)cc(N(Cc2ncc[nH]2)c2ccc3ncc(-c4cccnc4)cc3c2)c1 [Compound 59] | > 10 | > 10 | – | –
21 | COc1cc(Nc2ccc3ncc(-c4cnn(C5CCCCO5)c4)cc3c2)cc(OC)c1 (stereo not shown) [Int. 8] | > 10 | > 10 | – | –
